Source: patent publication US11318137B2, “Quinazoline compounds as modulators of Ras signaling” (VANDERBILT UNIVERSITY, priority 2017, dated 2022)

Legend:
[1] = target: T1, SOS-mediated nucleotide exchange on Ras (Homo sapiens, UniProt Q07889); assay: SOS-mediated nucleotide exchange on Ras (BODIPY-GDP fluorescence); type: biochemical; settings: Ras loaded with BODIPY-GDP, GTP and SOS added; EC50 from derived exchange rates
T1 sequence (Q07889 1-1333): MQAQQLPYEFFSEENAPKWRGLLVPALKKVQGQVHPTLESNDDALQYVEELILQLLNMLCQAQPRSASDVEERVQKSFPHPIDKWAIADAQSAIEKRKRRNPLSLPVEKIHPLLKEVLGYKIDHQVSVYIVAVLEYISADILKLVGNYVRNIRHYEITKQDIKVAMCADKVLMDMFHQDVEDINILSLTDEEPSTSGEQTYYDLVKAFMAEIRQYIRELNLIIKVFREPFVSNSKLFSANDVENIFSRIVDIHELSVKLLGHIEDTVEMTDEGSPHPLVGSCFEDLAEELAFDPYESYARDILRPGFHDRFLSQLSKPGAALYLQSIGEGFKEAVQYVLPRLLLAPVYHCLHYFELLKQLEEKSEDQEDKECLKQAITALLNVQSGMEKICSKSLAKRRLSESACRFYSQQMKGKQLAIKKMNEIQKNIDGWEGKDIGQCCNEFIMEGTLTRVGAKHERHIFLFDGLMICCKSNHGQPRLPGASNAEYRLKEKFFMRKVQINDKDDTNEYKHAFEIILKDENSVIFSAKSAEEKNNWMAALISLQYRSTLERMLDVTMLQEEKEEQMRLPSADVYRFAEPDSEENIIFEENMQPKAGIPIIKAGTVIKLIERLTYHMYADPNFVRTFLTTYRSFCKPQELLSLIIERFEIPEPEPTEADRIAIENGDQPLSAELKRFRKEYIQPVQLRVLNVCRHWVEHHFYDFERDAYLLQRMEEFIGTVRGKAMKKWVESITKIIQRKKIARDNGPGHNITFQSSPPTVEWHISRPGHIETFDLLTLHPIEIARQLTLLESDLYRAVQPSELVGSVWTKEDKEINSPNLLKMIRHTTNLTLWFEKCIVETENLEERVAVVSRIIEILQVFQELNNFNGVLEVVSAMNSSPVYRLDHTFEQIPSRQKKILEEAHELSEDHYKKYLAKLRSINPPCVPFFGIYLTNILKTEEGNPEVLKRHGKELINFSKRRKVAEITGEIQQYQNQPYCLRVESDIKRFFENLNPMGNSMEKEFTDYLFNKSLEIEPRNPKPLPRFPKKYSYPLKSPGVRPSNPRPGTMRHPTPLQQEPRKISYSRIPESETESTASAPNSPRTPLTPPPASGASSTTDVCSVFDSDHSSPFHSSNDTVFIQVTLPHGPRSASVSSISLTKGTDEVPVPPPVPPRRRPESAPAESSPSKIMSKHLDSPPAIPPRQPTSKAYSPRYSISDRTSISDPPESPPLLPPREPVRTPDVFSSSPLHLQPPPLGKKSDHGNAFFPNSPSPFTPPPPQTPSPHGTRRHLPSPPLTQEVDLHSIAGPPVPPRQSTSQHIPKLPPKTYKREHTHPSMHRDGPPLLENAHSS
In short: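 Compound, then GTP and SOS, were added to buffered Ras preloaded with BODIPY-GDP, and the fluorescence change from labeled GDP being exchanged for GTP was followed over time. Rates came from single-exponential fits, and EC50 from a four-parameter fit of mean rate against compound concentration.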

Son of Sevenless (SOS) = target: T2, Son of Sevenless (SOS) (Homo sapiens, UniProt Q07889); assay: Binding to SOS, fluorescence polarization anisotropy (FPA) displacement of FITC-conjugated probe; settings: binding affinity calculated from IC50 of FITC-probe displacement, read-out: Binding affinities (binding affinity to SOS)
T2 sequence (Q07889 564-1049 limits assumed): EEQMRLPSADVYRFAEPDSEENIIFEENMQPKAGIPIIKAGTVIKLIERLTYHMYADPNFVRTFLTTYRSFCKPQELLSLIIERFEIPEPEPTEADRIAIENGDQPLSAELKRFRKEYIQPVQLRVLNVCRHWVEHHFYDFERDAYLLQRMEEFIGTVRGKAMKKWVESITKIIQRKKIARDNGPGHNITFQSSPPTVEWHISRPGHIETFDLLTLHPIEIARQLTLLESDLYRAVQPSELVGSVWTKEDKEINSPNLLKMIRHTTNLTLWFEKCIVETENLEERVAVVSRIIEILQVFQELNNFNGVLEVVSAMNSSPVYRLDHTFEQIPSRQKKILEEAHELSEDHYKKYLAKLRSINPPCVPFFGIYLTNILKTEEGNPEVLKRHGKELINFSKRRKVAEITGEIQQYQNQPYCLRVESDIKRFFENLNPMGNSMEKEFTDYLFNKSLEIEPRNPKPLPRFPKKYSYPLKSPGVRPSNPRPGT
In short: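 FITC-labelled probe incubated with SOS in buffer; displacement by test compound across a dose range read as fluorescence anisotropy change. IC50 from four-parameter variable-slope fit, binding affinity calculated from IC50.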

Work on `C[C@@H](Nc1nc(Nc2ccc(F)c(Cl)c2)nc2c(C3=CCN(C)CC3)cccc12)C1CC1` [Example 120, (R)—N^2-(3-chloro-4-fluorophenyl)-N^4-(1-cyclopropylethyl)-8-(1-methyl-1,2,3,6-tetrahydropyridin-4-yl)quinazoline-2,4-diamine] yielded an EC50 [1] of 5 to 30 µM and a Ki (Son of Sevenless (SOS)) of 1 to 5 µM.
`C[C@@H](Nc1nc(NCC2CCCCC2)nc2c(C3=CCN(C)CC3)cccc12)C1CC1` [Example 121, (R)—N^2-(cyclohexylmethyl)-N^4-(1-cyclopropylethyl)-8-(1-methyl-1,2,3,6-tetrahydropyridin-4-yl)quinazoline-2,4-diamine] showed an EC50 [1] of 1 to 5 µM and a Ki (Son of Sevenless (SOS)) of 1 to 5 µM.
Work on `C[C@@H](Nc1nc(Nc2ccc(F)c(Cl)c2)nc2c(C3=CCOCC3)cccc12)C1CC1` [Example 122, (R)—N^2-(3-chloro-4-fluorophenyl)-N^4-(1-cyclopropylethyl)-8-(3,6-dihydro-2H-pyran-4-yl)quinazoline-2,4-diamine] yielded an EC50 [1] of over 30 µM and a Ki (Son of Sevenless (SOS)) of over 5 µM.
`CCOCCc1cccc2c(N[C@H](C)C3CC3)nc(Nc3ccc(F)c(Cl)c3)nc12` [Example 123, (R)—N^2-(3-chloro-4-fluorophenyl)-N^4-(1-cyclopropylethyl)-8-(2-ethoxyethyl)quinazoline-2,4-diamine] was tested, and the EC50 [1] was over 30 µM and the Ki (Son of Sevenless (SOS)) was over 5 µM.
Work on `C[C@@H](Nc1nc(Nc2ccc(F)c(Cl)c2)nc2c(N3CCOCC3)cccc12)C1CC1` [Example 124, (R)—N^2-(3-chloro-4-fluorophenyl)-N^4-(1-cyclopropylethyl)-8-morpholinoquinazoline-2,4-diamine] yielded an EC50 [1] of 5 to 30 µM and a Ki (Son of Sevenless (SOS)) of over 5 µM.
Work on `CC[C@@H](Nc1nc(NCC2CCCCC2)nc2c(C3=CCNCC3)cccc12)C1CC1` [Example 125, (R)—N^2-(cyclohexylmethyl)-N^4-(1-cyclopropylpropyl)-8-(1,2,3,6-tetrahydropyridin-4-yl)quinazoline-2,4-diamine] yielded an EC50 [1] of under 1 µM and a Ki (Son of Sevenless (SOS)) of under 1 µM.
For `CC[C@@H](Nc1nc(Nc2cc(C)cc(F)c2)nc2c(C3=CCNCC3)cccc12)C1CC1` [Example 126, (R)—N^4-(1-cyclopropylpropyl)-N^2-(3-fluoro-5-methylphenyl)-8-(1,2,3,6-tetrahydropyridin-4-yl)quinazoline-2,4-diamine], the EC50 [1] was 1 to 5 µM and the Ki (Son of Sevenless (SOS)) was under 1 µM.
`CC[C@@H](Nc1nc(NCC2CCCCC2)nc2c(CCN)cccc12)C1CC1` [Example 127, (R)-8-(2-aminoethyl)-N^2-(cyclohexylmethyl)-N^4-(1-cyclopropylpropyl)quinazoline-2,4-diamine] gave an EC50 [1] of 1 to 5 µM and a Ki (Son of Sevenless (SOS)) of under 1 µM.
For `CC[C@@H](Nc1nc(Nc2cc(C)cc(F)c2)nc2c(CCN)cccc12)C1CC1` [Example 128, (R)-8-(2-aminoethyl)-N^4-(1-cyclopropylpropyl)-N^2-(3-fluoro-5-methylphenyl)quinazoline-2,4-diamine], the EC50 [1] was 1 to 5 µM and the Ki (Son of Sevenless (SOS)) was 1 to 5 µM.
For `C[C@@H](Nc1nc(Nc2ccc(F)c(Cl)c2)nc2c(CN)cccc12)C(C)(C)C` [Example 130, (R)-8-(aminomethyl)-N^2-(3-chloro-4-fluorophenyl)-N^4-(3,3-dimethylbutan-2-yl)quinazoline-2,4-diamine], the EC50 [1] was 5 to 30 µM and the Ki (Son of Sevenless (SOS)) was over 5 µM.
For `Cc1cc(F)cc(Nc2nc(N[C@H](C)C(C)(C)C)c3cccc(CN)c3n2)c1` [Example 131, (R)-8-(aminomethyl)-N^4-(3,3-dimethylbutan-2-yl)-N^2-(3-fluoro-5-methylphenyl)quinazoline-2,4-diamine], the EC50 [1] was 5 to 30 µM and the Ki (Son of Sevenless (SOS)) was over 5 µM.
`C[C@@H](Nc1nc(Nc2ccc(F)c(Cl)c2)nc2c(CN)cccc12)c1cccs1` [Example 132, (R)-8-(aminomethyl)-N^2-(3-chloro-4-fluorophenyl)-N^4-(1-(thiophen-2-yl)ethyl)quinazoline-2,4-diamine] gave an EC50 [1] of 5 to 30 µM and a Ki (Son of Sevenless (SOS)) of 1 to 5 µM.
`C[C@@H](Nc1nc(NCc2cccc(Cl)c2F)nc2c(C3=CCNCC3)cccc12)c1cccs1` [Example 133, (R)—N^2-(3-chloro-2-fluorobenzyl)-8-(1,2,3,6-tetrahydropyridin-4-yl)-N^4-(1-(thiophen-2-yl)ethyl)quinazoline-2,4-diamine] showed an EC50 [1] of 5 to 30 µM and a Ki (Son of Sevenless (SOS)) of 1 to 5 µM.
